{"source": "patent US20240342152A1", "about": "“Method of Treatment” (Vanda Pharmaceuticals Inc., priority 2022, published 2024)", "key": {"[1]": {"system": "patients with bipolar I disorder", "experiment": "Phase III clinical study of iloperidone in acute manic and mixed episodes associated with bipolar I disorder", "type": "in vivo, adults", "protocol": "In a Phase III clinical study of iloperidone as a treatment of acute manic and mixed episodes associated with bipolar I disorder, approximately 400 volunteers with a history of bipolar disorder and suffering from a current episode of mania are randomized to receive either iloperidone or placebo in a 1:1 ratio. Treatment efficacy is assessed using the Young Mania Rating Scale (YMRS), a known rating scale of clinical severity in the core symptoms of mania, as well as the Clinician Global Impression of Severity (CGI-S) and the Clinician Global Impression of Change (CGI-C).\nYMRS assessments are made at baseline and during days 7, 10, 14, 21, and 28 using the following key: • 0=reports no decrease in sleep; • 1=sleeping less than normal amount by up to one hour; • 2=sleeping less than normal by more than one hour; • 3=reports decreased need for sleep; and • 4=denies need for sleep.\nPatients receive four weeks of double-blind treatment comprising the administration of 24 mg/d iloperidone b.i.d. (12 mg twice daily), 12 mg/d b.i.d. (6 mg twice daily) for poor metabolizers, or placebo. CYP2D6 non-poor metabolizers are titrated to a clinical dose of 24 mg/day (12 mg twice daily) by administering 1 mg twice per day on day 1, 3 mg twice per day on day 2, 6 mg twice per day on day 3, 9 mg twice per day on day 4, and 12 mg twice per day on day 5 and each day thereafter. CYP2D6 poor metabolizers are titrated to 12 mg/day (6 mg twice daily) by administering 1 mg twice per day on day 1, 3 mg twice per day on day 2, and 6 mg twice per day on day 3 and each day thereafter."}, "[2]": {"system": "adults with schizophrenia or bipolar I disorder", "experiment": "Clinical study of tolerability of faster iloperidone titration (orthostatic hypotension monitoring)", "type": "in vivo", "details": "n=12", "protocol": "A clinical study of adults (n=12, age 18-65, inclusive) with schizophrenia or bipolar I disorder is conducted to assess the tolerability of a faster iloperidone titration scheme. Patients are assigned to one of two cohorts based on CYP2D6 phenotype.\nCYP2D6 non-poor metabolizers are titrated to a clinical dose of 24 mg/day (12 mg twice daily) by administering 1 mg twice per day on day 1, 3 mg twice per day on day 2, 6 mg twice per day on day 3, 9 mg twice per day on day 4, and 12 mg twice per day on day 5. CYP2D6 poor metabolizers are titrated to 12 mg/day (6 mg twice daily) by administering 1 mg twice per day on day 1, 3 mg twice per day on day 2, and 6 mg twice per day on day 3. In each case, the target dose of 24 mg/day or 12 mg/day is continued until day 7.\nPatients are monitored for OH by measuring blood pressure after lying supine for three minutes and two minutes after standing. OH is defined as a fall in systolic blood pressure of 20 mmHg or more or a fall in diastolic blood pressure of 10 mmHg or more.\nThe results are compared to historical placebo data from a prior study of the FDA-approved titration regimen."}, "[3]": {"system": "patients with schizophrenia", "details": "patients continuing on therapy past the titration period; cited from earlier work"}, "[4]": {"details": "endpoint (day 28), ITT population, N = 198"}}, "data": [{"smiles": "COc1cc(C(C)=O)ccc1OCCCN1CCC(c2noc3cc(F)ccc23)CC1", "note": "[Iloperidone, 1-[4-[3-[4-(6-fluoro-1,2-benzisoxazol-3-yl)-1-piperidinyl]propoxy]-3-methoxyphenyl]ethanone]", "values": [{"measurement": "Sedation reported as treatment-emergent adverse event", "setting": "[1]; N = 206", "result": "5 (2.4) n (%)"}, {"measurement": "Somnolence reported as treatment-emergent adverse event", "setting": "[1]; N = 206", "result": "11 (5.3) n (%)"}, {"measurement": "Onset of statistically significant YMRS benefit versus placebo", "setting": "[1]; YMRS assessment", "result": "as early as the end of week 2"}, {"measurement": "YMRS Total Score, Diff (iloperidone vs placebo)", "setting": "[1]; day 28, ITT population, p-value 0.000008", "result": "−4.0"}, {"measurement": "CGI-C, Diff (iloperidone vs placebo)", "setting": "[1]; day 28, ITT population, p-value 0.0002", "result": "−0.5"}, {"measurement": "CGI-S, Diff (iloperidone vs placebo)", "setting": "[1]; day 28, ITT population, p-value 0.0005", "result": "−0.4"}, {"measurement": "MADRS Total Score, Diff (iloperidone vs placebo)", "setting": "[1]; day 28, ITT population, p-value 0.1365", "result": "−0.9"}, {"measurement": "CGI-C", "setting": "[1]; [4]", "result": 2.3}, {"measurement": "CGI-S, change from baseline", "setting": "[1]; [4]", "result": "−1.5"}, {"measurement": "MADRS Total Score, change from baseline", "setting": "[1]; [4]", "result": "−2.7"}, {"measurement": "YMRS Total Score, change from baseline", "setting": "[1]; endpoint (day 28), ITT population, N = 198, 24 mg/d b.i.d. (12 mg/d for CYP2D6 poor metabolizers)", "result": "−14.0"}, {"measurement": "YMRS change associated with SNP rs62300864 (SHROOM3)", "setting": "[1]; iloperidone-treated group (n=167), p 1.64 × 10^−6", "result": "12.08 ± 2.43"}, {"measurement": "YMRS change associated with SNP rs55837573 (RELN)", "setting": "[1]; iloperidone-treated group (n=167), p 2.48 × 10^−6", "result": "−4.61 ± 0.94"}, {"measurement": "YMRS change associated with SNP rs76876307 (FAT3)", "setting": "[1]; iloperidone-treated group (n=167), p 5.27 × 10^−6", "result": "15.44 ± 3.28"}, {"measurement": "YMRS change associated with SNP rs1118464 (NAV2)", "setting": "[1]; iloperidone-treated group (n=167), p 6.98 × 10^−6", "result": "−4.15 ± 0.89"}, {"measurement": "YMRS sleep component, least squares mean change from baseline to day 28", "setting": "[1]; placebo −0.95, p=0.008", "result": "−1.26"}, {"measurement": "Tolerability of faster titration", "setting": "[2]; compared to historical placebo data", "result": "well-tolerated"}, {"measurement": "Patients meeting orthostatic hypotension (OH) criteria", "setting": "[2]; faster titration to 24 mg/day (12 mg/day poor metabolizers), to day 7, OH = fall in systolic ≥20 mmHg or diastolic ≥10 mmHg", "result": "Only one patient receiving iloperidone met the OH criteria"}, {"measurement": "Incidents of dizziness, syncope, or accidental trauma", "setting": "[2]; faster titration, to day 7", "result": "no reported incidents of dizziness, syncope, or accidental trauma"}, {"measurement": "Other adverse events", "setting": "[2]; faster titration, to day 7", "result": "no other adverse events"}, {"measurement": "Efficacy in treating schizophrenia relative to haloperidol and risperidone", "setting": "[3]", "result": "comparable to that of haloperidol and risperidone"}]}]}
